Source: US20150105252A1, “SUBSTITUTED PYRAZOLES AS HERBICIDES” (E I DU PONT DE NEMOURS AND COMPANY, priority 2013, published 2015)

How the values were obtained:
foxtail, giant = test: Test A preemergence; type: in vivo, Setaria faberii; settings: preemergence
Outline: (§1)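 Visual injury ratings, 0 = no effect to 100 = complete control, taken about 10 days after treatment against untreated controls. Test chemicals, in a non-phytotoxic surfactant-containing solvent, were sprayed onto soil preemergence or onto one- to two-leaf plants (2–10 cm) postemergence, in loam–sand soil under greenhouse conditions.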

pigweed [1] = test: Test A preemergence; type: in vivo, Amaranthus retroflexus; settings: preemergence
Outline: as §1

corn [2] = test: Test A preemergence; type: in vivo, Zea mays; settings: preemergence
Outline: as §1

wheat [3] = test: Test A postemergence; type: in vivo, Triticum aestivum
Outline: as §1

wheat [4] = test: Test C preemergence; type: in vivo, Triticum aestivum; settings: for Plant response rating (scale of 0 to 100), Wheat: Preemergence, 250 g ai/ha; for Wheat plant response rating / Plant response rating, Wheat: preemergence, 13 to 15 days; for Wheat plant response rating: scale 0 to 100 (0 no effect, 100 complete control); for Plant response rating, Wheat: 125 g ai/ha, scale 0 to 100, 0 = no effect, 100 = complete control
Outline: (§2)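 Seeds sown in loam–sand blend and treated preemergence with test chemicals in non-phytotoxic solvent with surfactant; postemergence plants in peat-based medium, treated at 2–18 cm (1- to 4-leaf stage). Greenhouse 13 to 15 days, then visual rating versus controls, 0 (no effect) to 100 (complete control).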

corn [5] = test: Test C preemergence; type: in vivo, Zea mays; settings: for Plant response rating (scale of 0 to 100), Corn: Preemergence, 250 g ai/ha; for Corn plant response rating / Plant response rating, Corn: preemergence, 13 to 15 days; for Corn plant response rating: scale 0 to 100 (0 no effect, 100 complete control); for Plant response rating, Corn: 125 g ai/ha, scale 0 to 100, 0 = no effect, 100 = complete control
Outline: as §2

crabgrass, large = test: Test C preemergence; type: in vivo, Digitaria sanguinalis; settings: for Plant response rating (scale of 0 to 100), Crabgrass, Large: Preemergence, 250 g ai/ha; for Crabgrass, Large plant response rating / Plant response rating, Crabgrass, Large: preemergence, 13 to 15 days; for Crabgrass, Large plant response rating: scale 0 to 100 (0 no effect, 100 complete control); for Plant response rating, Crabgrass, Large: 125 g ai/ha, scale 0 to 100, 0 = no effect, 100 = complete control
Outline: as §2

johnsongrass = test: Test C preemergence; type: in vivo, Sorghum halepense; settings: for Plant response rating (scale of 0 to 100), Johnsongrass: Preemergence, 250 g ai/ha; for Johnsongrass plant response rating / Plant response rating, Johnsongrass: preemergence, 13 to 15 days; for Johnsongrass plant response rating: scale 0 to 100 (0 no effect, 100 complete control); for Plant response rating, Johnsongrass: 125 g ai/ha, scale 0 to 100, 0 = no effect, 100 = complete control
Outline: as §2

morningglory = test: Test C preemergence; type: in vivo, Ipomoea coccinea; settings: for Plant response rating (scale of 0 to 100), Morningglory: Preemergence, 250 g ai/ha; for Morningglory plant response rating / Plant response rating, Morningglory: preemergence, 13 to 15 days; for Morningglory plant response rating: scale 0 to 100 (0 no effect, 100 complete control); for Plant response rating, Morningglory: 125 g ai/ha, scale 0 to 100, 0 = no effect, 100 = complete control
Outline: as §2

pigweed [6] = test: Test C preemergence; type: in vivo, Amaranthus retroflexus; settings: for Plant response rating (scale of 0 to 100), Pigweed: Preemergence, 250 g ai/ha; for Pigweed plant response rating / Plant response rating, Pigweed: preemergence, 13 to 15 days; for Pigweed plant response rating: scale 0 to 100 (0 no effect, 100 complete control); for Plant response rating, Pigweed: 125 g ai/ha, scale 0 to 100, 0 = no effect, 100 = complete control
Outline: as §2

barnyardgrass = test: Test C preemergence; type: in vivo, Echinochloa crus-galli; settings: for Plant response rating (scale of 0 to 100), Barnyardgrass: Preemergence, 250 g ai/ha; for Barnyardgrass plant response rating / Plant response rating, Barnyardgrass: preemergence, 13 to 15 days; for Barnyardgrass plant response rating: scale 0 to 100 (0 no effect, 100 complete control); for Plant response rating, Barnyardgrass: 125 g ai/ha, scale 0 to 100, 0 = no effect, 100 = complete control
Outline: as §2

waterhemp = test: Test C preemergence; type: in vivo, Amaranthus rudis; settings: for Plant response rating (scale of 0 to 100), Waterhemp: Preemergence, 250 g ai/ha; for Waterhemp plant response rating / Plant response rating, Waterhemp: preemergence, 13 to 15 days; for Waterhemp plant response rating: scale 0 to 100 (0 no effect, 100 complete control); for Plant response rating, Waterhemp: 125 g ai/ha, scale 0 to 100, 0 = no effect, 100 = complete control
Outline: as §2

velvetleaf = test: Test C preemergence; type: in vivo, Abutilon theophrasti; settings: for Plant response rating (scale of 0 to 100), Velvetleaf: Preemergence, 250 g ai/ha; for Velvetleaf plant response rating / Plant response rating, Velvetleaf: preemergence, 13 to 15 days; for Velvetleaf plant response rating: scale 0 to 100 (0 no effect, 100 complete control); for Plant response rating, Velvetleaf: 125 g ai/ha, scale 0 to 100, 0 = no effect, 100 = complete control
Outline: as §2

[7] = 125 g ai/ha, visual injury, 0 to 100 scale, approx. 10 days
[8] = 500 g ai/ha, visual injury after approx. 10 days, 0 to 100 scale (0 no effect, 100 complete control)
[9] = Postemergence, 500 g ai/ha, 0 to 100 scale (0 no effect, 100 complete control)
[10] = postemergence, 125 g ai/ha, about 10 days, visual rating on 0 to 100 scale (0 no effect, 100 complete control)

CCNC(=O)c1cc(CC)n(Cc2ccnc(OC(F)F)c2)n1 [Compound 130]
Foxtail, Giant plant response rating (foxtail, giant; [7]): 100
Foxtail, Giant plant response rating (foxtail, giant; [8]): 100
Pigweed plant response rating (pigweed [1]; [7]): 100
Pigweed plant response rating (pigweed [1]; [8]): 100
Corn plant response rating (corn [2]; [7]): 0
Corn plant response rating (corn [2]; [8]): 90
Wheat plant response rating (wheat [3]; [9]): 90
Wheat plant response rating (wheat [3]; [10]): 20
Plant response rating (scale of 0 to 100), Wheat (wheat [4]): 95
Wheat plant response rating (wheat [4]; 31 g ai/ha, visual rating): 0
Wheat plant response rating (wheat [4]; 62 g ai/ha): 35
Plant response rating, Wheat (wheat [4]): 40
Plant response rating (scale of 0 to 100), Corn (corn [5]): 85
Corn plant response rating (corn [5]; 31 g ai/ha, visual rating): 5
Corn plant response rating (corn [5]; 62 g ai/ha): 30
Plant response rating, Corn (corn [5]): 45
Plant response rating (scale of 0 to 100), Crabgrass, Large (crabgrass, large): 100
Crabgrass, Large plant response rating (crabgrass, large; 31 g ai/ha, visual rating): 100
Crabgrass, Large plant response rating (crabgrass, large; 62 g ai/ha): 100
Plant response rating, Crabgrass, Large (crabgrass, large): 100
Plant response rating (scale of 0 to 100), Johnsongrass (johnsongrass): 95
Johnsongrass plant response rating (johnsongrass; 31 g ai/ha, visual rating): 35
Johnsongrass plant response rating (johnsongrass; 62 g ai/ha): 65
Plant response rating, Johnsongrass (johnsongrass): 75
Plant response rating (scale of 0 to 100), Morningglory (morningglory): 100
Morningglory plant response rating (morningglory; 31 g ai/ha, visual rating): 65
Morningglory plant response rating (morningglory; 62 g ai/ha): 98
Plant response rating, Morningglory (morningglory): 100
Plant response rating (scale of 0 to 100), Pigweed (pigweed [6]): 100
Pigweed plant response rating (pigweed [6]; 31 g ai/ha, visual rating): 100
Pigweed plant response rating (pigweed [6]; 62 g ai/ha): 100
Plant response rating, Pigweed (pigweed [6]): 100
Plant response rating (scale of 0 to 100), Barnyardgrass (barnyardgrass): 100
Barnyardgrass plant response rating (barnyardgrass; 31 g ai/ha): 50
Barnyardgrass plant response rating (barnyardgrass; 62 g ai/ha): 85
Plant response rating, Barnyardgrass (barnyardgrass): 100
Plant response rating (scale of 0 to 100), Waterhemp (waterhemp): 100
Waterhemp plant response rating (waterhemp; 31 g ai/ha, visual rating): 100
Waterhemp plant response rating (waterhemp; 62 g ai/ha): 100
Plant response rating, Waterhemp (waterhemp): 100
Plant response rating (scale of 0 to 100), Velvetleaf (velvetleaf): 100
Velvetleaf plant response rating (velvetleaf; 31 g ai/ha, visual rating): 55
Velvetleaf plant response rating (velvetleaf; 62 g ai/ha): 100
Plant response rating, Velvetleaf (velvetleaf): 90

CCCNC(=O)c1cc(CC)n(Cc2ccnc(OC(F)F)c2)n1 [Compound 132]
Foxtail, Giant plant response rating (foxtail, giant; [7]): 100
Foxtail, Giant plant response rating (foxtail, giant; [8]): 100
Pigweed plant response rating (pigweed [1]; [7]): 100
Pigweed plant response rating (pigweed [1]; [8]): 100
Corn plant response rating (corn [2]; [7]): 40
Corn plant response rating (corn [2]; [8]): 80
Wheat plant response rating (wheat [3]; [9]): 90
Wheat plant response rating (wheat [3]; [10]): 80
Plant response rating (scale of 0 to 100), Wheat (wheat [4]): 95
Wheat plant response rating (wheat [4]; 31 g ai/ha, visual rating): 15
Wheat plant response rating (wheat [4]; 62 g ai/ha): 15
Plant response rating, Wheat (wheat [4]): 70
Plant response rating (scale of 0 to 100), Corn (corn [5]): 95
Corn plant response rating (corn [5]; 31 g ai/ha, visual rating): 55
Corn plant response rating (corn [5]; 62 g ai/ha): 25
Plant response rating, Corn (corn [5]): 95
Plant response rating (scale of 0 to 100), Crabgrass, Large (crabgrass, large): 100
Crabgrass, Large plant response rating (crabgrass, large; 31 g ai/ha, visual rating): 98
Crabgrass, Large plant response rating (crabgrass, large; 62 g ai/ha): 100
Plant response rating, Crabgrass, Large (crabgrass, large): 100
Plant response rating (scale of 0 to 100), Johnsongrass (johnsongrass): 100
Johnsongrass plant response rating (johnsongrass; 31 g ai/ha, visual rating): 25
Johnsongrass plant response rating (johnsongrass; 62 g ai/ha): 90
Plant response rating, Johnsongrass (johnsongrass): 100
Plant response rating (scale of 0 to 100), Morningglory (morningglory): 100
Morningglory plant response rating (morningglory; 31 g ai/ha, visual rating): 60
Morningglory plant response rating (morningglory; 62 g ai/ha): 100
Plant response rating, Morningglory (morningglory): 100
Plant response rating (scale of 0 to 100), Pigweed (pigweed [6]): 100
Pigweed plant response rating (pigweed [6]; 31 g ai/ha, visual rating): 100
Pigweed plant response rating (pigweed [6]; 62 g ai/ha): 100
Plant response rating, Pigweed (pigweed [6]): 100
Plant response rating (scale of 0 to 100), Barnyardgrass (barnyardgrass): 100
Barnyardgrass plant response rating (barnyardgrass; 31 g ai/ha): 95
Barnyardgrass plant response rating (barnyardgrass; 62 g ai/ha): 100
Plant response rating, Barnyardgrass (barnyardgrass): 100
Plant response rating (scale of 0 to 100), Waterhemp (waterhemp): 100
Waterhemp plant response rating (waterhemp; 31 g ai/ha, visual rating): 100
Waterhemp plant response rating (waterhemp; 62 g ai/ha): 100
Plant response rating, Waterhemp (waterhemp): 100
Plant response rating (scale of 0 to 100), Velvetleaf (velvetleaf): 100
Velvetleaf plant response rating (velvetleaf; 31 g ai/ha, visual rating): 55
Velvetleaf plant response rating (velvetleaf; 62 g ai/ha): 100
Plant response rating, Velvetleaf (velvetleaf): 100
